Experimental data published in PubChem BioAssay (NCI).
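48-hour exposure; five concentrations; linearly interpolated endpoints. GI50 is the concentration that inhibits growth by half. TGI denotes the concentration required for complete inhibition of growth.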

Experiments:
Assay in all cases: growth of human tumour cells (NCI), 48 h
ACHN renal = tested on: ACHN renal
CCRF-CEM leukemia = tested on: CCRF-CEM leukemia
EKVX NSCLC = tested on: EKVX NSCLC
KM20L2 colon = tested on: KM20L2 colon
M19-MEL melanoma = tested on: M19-MEL melanoma
SR leukemia = tested on: SR leukemia
UO-31 renal = tested on: UO-31 renal
SNB-75 CNS = tested on: SNB-75 CNS
DU-145 prostate = tested on: DU-145 prostate
MDA-MB-435 = tested on: MDA-MB-435

Row | SMILES | TGI (ACHN renal) | TGI (CCRF-CEM leukemia) | TGI (EKVX NSCLC) | TGI (KM20L2 colon) | TGI (M19-MEL melanoma) | TGI (SR leukemia) | TGI (UO-31 renal) | TGI (SNB-75 CNS) | GI50 (ACHN renal) | GI50 (CCRF-CEM leukemia) | GI50 (DU-145 prostate) | TGI (DU-145 prostate) | GI50 (EKVX NSCLC) | GI50 (KM20L2 colon) | GI50 (M19-MEL melanoma) | GI50 (MDA-MB-435) | TGI (MDA-MB-435) | GI50 (SNB-75 CNS) | GI50 (UO-31 renal)
1 | O=C(CO)CC(=O)C(=O)Nc1ccccc1 | > 100 µM | > 100 µM | > 100 µM | > 100 µM | > 100 µM | > 100 µM | > 100 µM | – | – | – | – | – | – | – | – | – | – | – | –
2 | COC(=O)C(=O)OC1(C(C)=O)CC2(c3ccccc3)OC1(c1ccccc1)c1ccccc12 (stereo not given) | – | > 100 µM | 42 µM | 30.7 µM | 31.1 µM | > 100 µM | 29.9 µM | 61.5 µM | – | – | – | – | – | – | – | – | – | – | –
3 | Cc1cc2nc(CCC(=O)O)c(=O)[nH]c2cc1C | > 100 µM | > 100 µM | > 100 µM | > 100 µM | > 100 µM | > 100 µM | > 100 µM | > 100 µM | – | – | – | – | – | – | – | – | – | – | –
4 | Oc1cc(O)c2c(-c3c(O)c(-c4ccc(O)c(O)c4)[o+]c4cc(O)cc(O)c34)c(O)c(-c3ccc(O)c(O)c3)[o+]c2c1 | 66.6 µM | – | 86.8 µM | > 100 µM | > 100 µM | 74.8 µM | 78.3 µM | 61.8 µM | – | – | – | – | – | – | – | – | – | – | –
5 | CCCCCC/C=C1\CCC(CN2CCCC2)C1=O (stereo not given) | 32.3 µM | 20.9 µM | 34.2 µM | 41.3 µM | 25.6 µM | > 22.4 µM | 33 µM | 38.3 µM | – | – | – | – | – | – | – | – | – | – | –
6 | CC1(CO)OC(n2cc(C(=O)NC(=O)OCc3ccccc3)c(=O)[nH]c2=O)CC1O (stereo not given) | > 100 µM | > 100 µM | – | > 100 µM | > 100 µM | > 100 µM | > 100 µM | > 100 µM | – | – | – | – | – | – | – | – | – | – | –
7 | O=C(CC1(O)C(=O)Nc2c(Cl)ccc(Cl)c21)c1ccc2ccccc2c1 (stereo not given) | 26.3 µM | > 100 µM | 31 µM | 62.1 µM | 7.82 µM | 7.62 µM | 34.9 µM | 54 µM | – | – | – | – | – | – | – | – | – | – | –
8 | N[C@@H]1CCCC[C@H]1N.O=C([O-])C(=O)[O-].[Pt+4] | 45.3 µM | > 100 µM | > 100 µM | 24.2 µM | > 100 µM | – | 43.6 µM | > 100 µM | 2.15 µM | 0.35 µM | 6.17 µM | > 100 µM | 88.7 µM | 0.263 µM | 1.18 µM | 0.577 µM | 18.6 µM | 18.5 µM | 8.47 µM
9 | CC(=O)OC[C@]1(O)CC[C@@]23CC1C[C@@H]2CCC1C(C)(C)CCC[C@@]13C (stereo not given in full) | 29.3 µM | 25.7 µM | – | 31.7 µM | 29.4 µM | 23.6 µM | 29.9 µM | 30 µM | – | – | – | – | – | – | – | – | – | – | –
10 | Oc1ccccc1C=NCc1ccco1 | > 100 µM | > 100 µM | > 100 µM | > 100 µM | > 100 µM | > 100 µM | > 100 µM | > 100 µM | – | – | – | – | – | – | – | – | – | – | –
11 | CCC/C(=N/NC(=O)C(N)=O)C(CC)C(=O)CCC(=O)N(Cc1ccccc1)Cc1ccccc1 (stereo not given) | > 100 µM | > 100 µM | > 100 µM | > 100 µM | > 100 µM | > 100 µM | > 100 µM | > 100 µM | – | – | – | – | – | – | – | – | – | – | –
12 | COc1cc(/C=C(\C#N)C(=O)c2ccccc2)ccc1O | > 100 µM | > 100 µM | > 100 µM | > 100 µM | > 100 µM | > 100 µM | > 100 µM | – | – | – | – | – | – | – | – | – | – | – | –
13 | N#C/C(=C/c1ccc[nH]1)P(=O)(O)O | > 100 µM | > 100 µM | > 100 µM | > 100 µM | > 100 µM | > 100 µM | > 100 µM | > 100 µM | – | – | – | – | – | – | – | – | – | – | –
14 | Clc1cc(Cc2cc(Cl)c(Cl)c3c2OCOC3)c2c(c1Cl)COCO2 | > 100 µM | > 100 µM | – | > 100 µM | > 100 µM | > 100 µM | > 100 µM | 52.3 µM | – | – | – | – | – | – | – | – | – | – | –
